Here are results for two molecules from article PMC8213057, “Targeting ALK2: An Open Science Approach to Developing Therapeutics for the Treatment of Diffuse Intrinsic Pontine Glioma” (Journal of Medicinal Chemistry, 2020).

In one data set the target is PKCa (Homo sapiens, UniProt P17252). Nature of the data set: biochemical. The conditions noted are these: read-out: % enzyme activity, 1 μM; Run 1, Run 2.
A further data set concerns the target TRKB (Homo sapiens, UniProt Q16620). The conditions noted are these: 1 μM; Run 1, Run 2.
A further data set concerns Caco-2 cells. Nature of the data set: Caco-2 permeability assay. As to conditions: 5 μM; for Papp_AB: Caco-2, apical to basolateral; for Papp_BA: Caco-2, basolateral to apical.
A further data set concerns the target DYRK1/DYRK1A (Homo sapiens, UniProt Q13627). Nature of the data set: biochemical. The conditions noted are these: read-out: % enzyme activity, 1 μM; Run 1, Run 2.
The target of another data set is CAMK1g (Homo sapiens, UniProt Q96NX5). Nature of the data set: biochemical. As to conditions: read-out: % enzyme activity, 1 μM; Run 1, Run 2.
The next data set addresses ROS/ROS1 (Homo sapiens, UniProt P08922). As to conditions: 1 μM; Run 1, Run 2.
The next data set concerns the target T1, TNK1 (Homo sapiens, UniProt Q13470).
T1 sequence (Q13470 1-666): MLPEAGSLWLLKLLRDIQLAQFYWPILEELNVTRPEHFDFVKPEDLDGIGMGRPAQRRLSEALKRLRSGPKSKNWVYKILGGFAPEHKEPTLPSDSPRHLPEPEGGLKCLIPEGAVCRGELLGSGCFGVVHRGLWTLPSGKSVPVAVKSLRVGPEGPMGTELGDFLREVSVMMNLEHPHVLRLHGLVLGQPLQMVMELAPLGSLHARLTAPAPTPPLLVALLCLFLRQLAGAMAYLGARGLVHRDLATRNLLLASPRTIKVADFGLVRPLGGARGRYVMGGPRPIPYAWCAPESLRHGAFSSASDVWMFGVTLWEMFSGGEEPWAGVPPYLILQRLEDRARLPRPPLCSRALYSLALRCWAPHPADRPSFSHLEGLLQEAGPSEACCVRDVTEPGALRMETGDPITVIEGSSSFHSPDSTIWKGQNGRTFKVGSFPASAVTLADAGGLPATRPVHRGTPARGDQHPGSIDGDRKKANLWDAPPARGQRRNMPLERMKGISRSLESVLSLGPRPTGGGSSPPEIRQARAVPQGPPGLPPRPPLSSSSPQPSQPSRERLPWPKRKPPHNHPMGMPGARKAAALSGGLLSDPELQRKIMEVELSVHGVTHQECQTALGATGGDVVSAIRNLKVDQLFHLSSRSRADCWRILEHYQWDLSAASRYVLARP
As to conditions: 1 μM; Run 1, Run 2.

In another data set the target is T2, MASTL (Homo sapiens, UniProt Q96GX5).
T2 sequence (Q96GX5 1-879): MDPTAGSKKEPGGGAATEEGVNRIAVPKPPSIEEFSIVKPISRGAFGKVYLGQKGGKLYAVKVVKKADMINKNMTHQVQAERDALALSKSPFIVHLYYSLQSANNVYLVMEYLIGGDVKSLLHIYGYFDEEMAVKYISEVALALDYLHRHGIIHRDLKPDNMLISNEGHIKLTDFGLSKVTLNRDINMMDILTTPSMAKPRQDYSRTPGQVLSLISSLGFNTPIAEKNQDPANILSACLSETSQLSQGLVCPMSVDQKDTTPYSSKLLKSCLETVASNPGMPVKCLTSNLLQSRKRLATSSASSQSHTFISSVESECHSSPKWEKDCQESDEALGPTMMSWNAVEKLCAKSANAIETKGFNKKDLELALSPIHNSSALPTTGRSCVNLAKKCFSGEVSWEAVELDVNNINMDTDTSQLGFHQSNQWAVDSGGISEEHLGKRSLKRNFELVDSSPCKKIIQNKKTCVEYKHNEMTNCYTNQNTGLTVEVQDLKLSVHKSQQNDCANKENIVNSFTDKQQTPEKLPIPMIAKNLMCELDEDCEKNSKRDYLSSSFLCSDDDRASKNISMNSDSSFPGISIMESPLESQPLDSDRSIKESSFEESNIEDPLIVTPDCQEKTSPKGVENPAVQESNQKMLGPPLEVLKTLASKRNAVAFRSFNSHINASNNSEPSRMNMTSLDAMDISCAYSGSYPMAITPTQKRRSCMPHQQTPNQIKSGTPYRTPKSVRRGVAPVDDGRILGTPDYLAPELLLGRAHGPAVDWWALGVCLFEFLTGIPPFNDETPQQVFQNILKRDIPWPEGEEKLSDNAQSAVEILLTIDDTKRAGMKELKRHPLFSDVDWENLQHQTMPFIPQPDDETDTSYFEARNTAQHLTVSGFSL
The conditions noted are these: 1 μM; Run 1, Run 2.

For a further data set, the target named is T3, PKD2/PRKD2 (Homo sapiens, UniProt Q9BZL6).
T3 sequence (Q9BZL6 1-878): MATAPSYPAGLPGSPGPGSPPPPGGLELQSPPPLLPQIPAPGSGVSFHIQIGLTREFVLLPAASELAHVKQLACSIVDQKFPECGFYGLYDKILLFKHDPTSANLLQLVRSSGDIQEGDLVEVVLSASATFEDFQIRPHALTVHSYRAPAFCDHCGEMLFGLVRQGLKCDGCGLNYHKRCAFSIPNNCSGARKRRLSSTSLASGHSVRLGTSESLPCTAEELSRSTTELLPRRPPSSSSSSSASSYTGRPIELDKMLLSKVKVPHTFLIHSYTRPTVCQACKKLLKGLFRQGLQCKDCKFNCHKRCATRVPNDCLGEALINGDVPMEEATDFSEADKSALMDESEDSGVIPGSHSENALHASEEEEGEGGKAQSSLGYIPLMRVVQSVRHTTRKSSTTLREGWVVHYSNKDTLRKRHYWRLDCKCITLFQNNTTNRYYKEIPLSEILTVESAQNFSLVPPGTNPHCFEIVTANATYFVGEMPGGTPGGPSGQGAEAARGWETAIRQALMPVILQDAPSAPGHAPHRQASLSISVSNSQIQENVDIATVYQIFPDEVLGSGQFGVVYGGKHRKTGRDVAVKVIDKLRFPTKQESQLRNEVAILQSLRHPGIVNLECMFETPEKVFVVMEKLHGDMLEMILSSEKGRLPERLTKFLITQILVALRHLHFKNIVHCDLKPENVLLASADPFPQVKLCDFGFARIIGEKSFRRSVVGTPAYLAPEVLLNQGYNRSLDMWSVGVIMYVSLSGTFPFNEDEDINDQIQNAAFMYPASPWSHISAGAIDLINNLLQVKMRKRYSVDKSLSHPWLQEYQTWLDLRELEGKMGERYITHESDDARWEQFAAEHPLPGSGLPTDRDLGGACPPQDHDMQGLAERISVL
The conditions noted are these: 1 μM; Run 1, Run 2.

The next data set concerns the target PIM3 (Homo sapiens, UniProt Q86V86). Nature of the data set: biochemical. As to conditions: read-out: % enzyme activity, 1 μM; Run 1, Run 2.
For another data set, the target named is MELK (Homo sapiens, UniProt Q14680). As to conditions: 1 μM; Run 1, Run 2.

Molecules are shown by their SMILES.

ROS/ROS1, sequence (P08922 28-2347): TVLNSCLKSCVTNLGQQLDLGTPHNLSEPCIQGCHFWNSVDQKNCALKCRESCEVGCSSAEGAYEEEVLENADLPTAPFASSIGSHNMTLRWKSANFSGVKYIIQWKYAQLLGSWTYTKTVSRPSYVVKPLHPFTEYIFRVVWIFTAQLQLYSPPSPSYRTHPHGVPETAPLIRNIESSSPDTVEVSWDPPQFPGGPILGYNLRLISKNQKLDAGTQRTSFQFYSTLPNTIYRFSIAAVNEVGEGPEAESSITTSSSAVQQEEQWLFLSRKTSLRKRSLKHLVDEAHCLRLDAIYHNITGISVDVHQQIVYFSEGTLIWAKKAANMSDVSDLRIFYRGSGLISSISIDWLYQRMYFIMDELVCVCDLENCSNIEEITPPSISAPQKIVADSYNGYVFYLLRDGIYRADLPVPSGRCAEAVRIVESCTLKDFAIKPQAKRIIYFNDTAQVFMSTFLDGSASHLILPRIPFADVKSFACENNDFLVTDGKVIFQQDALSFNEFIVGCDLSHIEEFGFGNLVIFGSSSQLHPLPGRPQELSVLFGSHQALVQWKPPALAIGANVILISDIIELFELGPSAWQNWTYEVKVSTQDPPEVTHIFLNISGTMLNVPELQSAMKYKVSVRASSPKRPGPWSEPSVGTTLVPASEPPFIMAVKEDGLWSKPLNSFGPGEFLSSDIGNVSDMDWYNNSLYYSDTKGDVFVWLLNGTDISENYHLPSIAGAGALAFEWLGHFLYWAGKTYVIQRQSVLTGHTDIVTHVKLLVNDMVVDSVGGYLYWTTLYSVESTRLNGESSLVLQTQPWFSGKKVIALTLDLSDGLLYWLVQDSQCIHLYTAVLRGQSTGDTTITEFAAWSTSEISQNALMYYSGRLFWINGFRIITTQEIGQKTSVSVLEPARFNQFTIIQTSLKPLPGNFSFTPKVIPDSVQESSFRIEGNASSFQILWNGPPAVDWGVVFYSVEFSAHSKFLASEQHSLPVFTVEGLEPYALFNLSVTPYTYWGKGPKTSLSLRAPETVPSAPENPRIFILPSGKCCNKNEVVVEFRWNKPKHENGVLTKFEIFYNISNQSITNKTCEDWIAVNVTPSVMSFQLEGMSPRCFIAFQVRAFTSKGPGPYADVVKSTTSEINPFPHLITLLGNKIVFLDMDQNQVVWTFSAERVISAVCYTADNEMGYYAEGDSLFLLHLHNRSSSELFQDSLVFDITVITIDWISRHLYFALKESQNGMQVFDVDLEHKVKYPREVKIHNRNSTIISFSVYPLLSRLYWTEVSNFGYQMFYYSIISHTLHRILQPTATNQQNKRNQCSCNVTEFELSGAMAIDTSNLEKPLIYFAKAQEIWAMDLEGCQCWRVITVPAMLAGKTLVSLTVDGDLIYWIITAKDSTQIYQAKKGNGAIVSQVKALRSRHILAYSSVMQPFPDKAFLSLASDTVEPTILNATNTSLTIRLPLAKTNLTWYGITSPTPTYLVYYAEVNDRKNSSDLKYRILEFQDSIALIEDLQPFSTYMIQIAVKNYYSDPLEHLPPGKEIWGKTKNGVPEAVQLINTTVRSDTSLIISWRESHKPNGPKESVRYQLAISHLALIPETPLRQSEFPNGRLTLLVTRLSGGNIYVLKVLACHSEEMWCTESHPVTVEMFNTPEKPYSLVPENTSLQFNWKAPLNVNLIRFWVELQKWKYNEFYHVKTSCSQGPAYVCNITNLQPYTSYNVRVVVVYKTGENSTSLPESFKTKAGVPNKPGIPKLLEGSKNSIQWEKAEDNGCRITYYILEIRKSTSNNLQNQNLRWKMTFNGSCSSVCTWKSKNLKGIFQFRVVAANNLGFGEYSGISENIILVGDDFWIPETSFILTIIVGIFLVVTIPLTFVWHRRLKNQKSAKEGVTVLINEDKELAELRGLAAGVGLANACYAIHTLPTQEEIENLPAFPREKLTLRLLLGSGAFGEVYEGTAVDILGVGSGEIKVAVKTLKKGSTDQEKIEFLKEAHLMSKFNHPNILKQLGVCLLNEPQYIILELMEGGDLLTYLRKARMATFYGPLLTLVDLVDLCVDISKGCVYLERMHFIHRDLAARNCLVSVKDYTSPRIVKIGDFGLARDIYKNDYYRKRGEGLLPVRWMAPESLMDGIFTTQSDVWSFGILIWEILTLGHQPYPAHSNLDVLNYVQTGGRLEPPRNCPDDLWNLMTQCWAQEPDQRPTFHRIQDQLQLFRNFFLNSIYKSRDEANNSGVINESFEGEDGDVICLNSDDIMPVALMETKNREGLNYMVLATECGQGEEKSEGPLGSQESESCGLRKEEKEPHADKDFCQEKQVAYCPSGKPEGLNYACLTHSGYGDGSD
TRKB, sequence (Q16620 32-822): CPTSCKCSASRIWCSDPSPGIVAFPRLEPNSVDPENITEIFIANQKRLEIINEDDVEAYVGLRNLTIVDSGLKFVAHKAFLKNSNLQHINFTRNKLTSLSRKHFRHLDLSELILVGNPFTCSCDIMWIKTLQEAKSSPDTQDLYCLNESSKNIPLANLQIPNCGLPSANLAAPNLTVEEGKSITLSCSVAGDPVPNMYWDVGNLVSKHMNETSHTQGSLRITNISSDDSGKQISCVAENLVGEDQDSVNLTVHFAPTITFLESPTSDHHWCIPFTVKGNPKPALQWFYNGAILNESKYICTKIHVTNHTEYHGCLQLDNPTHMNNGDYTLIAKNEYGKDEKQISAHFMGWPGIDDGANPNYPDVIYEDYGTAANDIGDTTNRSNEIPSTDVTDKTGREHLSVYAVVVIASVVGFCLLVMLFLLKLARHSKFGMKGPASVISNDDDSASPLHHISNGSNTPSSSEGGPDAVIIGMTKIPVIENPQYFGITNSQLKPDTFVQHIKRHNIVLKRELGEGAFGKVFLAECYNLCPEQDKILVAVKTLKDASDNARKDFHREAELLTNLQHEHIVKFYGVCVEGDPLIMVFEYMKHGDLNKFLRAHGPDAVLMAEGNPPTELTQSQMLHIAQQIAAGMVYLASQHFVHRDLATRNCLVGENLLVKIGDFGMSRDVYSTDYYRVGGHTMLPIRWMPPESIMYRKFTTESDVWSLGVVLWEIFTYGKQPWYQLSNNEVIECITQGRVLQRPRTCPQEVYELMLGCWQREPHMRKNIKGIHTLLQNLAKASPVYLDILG
MELK, sequence (Q14680 whole entry): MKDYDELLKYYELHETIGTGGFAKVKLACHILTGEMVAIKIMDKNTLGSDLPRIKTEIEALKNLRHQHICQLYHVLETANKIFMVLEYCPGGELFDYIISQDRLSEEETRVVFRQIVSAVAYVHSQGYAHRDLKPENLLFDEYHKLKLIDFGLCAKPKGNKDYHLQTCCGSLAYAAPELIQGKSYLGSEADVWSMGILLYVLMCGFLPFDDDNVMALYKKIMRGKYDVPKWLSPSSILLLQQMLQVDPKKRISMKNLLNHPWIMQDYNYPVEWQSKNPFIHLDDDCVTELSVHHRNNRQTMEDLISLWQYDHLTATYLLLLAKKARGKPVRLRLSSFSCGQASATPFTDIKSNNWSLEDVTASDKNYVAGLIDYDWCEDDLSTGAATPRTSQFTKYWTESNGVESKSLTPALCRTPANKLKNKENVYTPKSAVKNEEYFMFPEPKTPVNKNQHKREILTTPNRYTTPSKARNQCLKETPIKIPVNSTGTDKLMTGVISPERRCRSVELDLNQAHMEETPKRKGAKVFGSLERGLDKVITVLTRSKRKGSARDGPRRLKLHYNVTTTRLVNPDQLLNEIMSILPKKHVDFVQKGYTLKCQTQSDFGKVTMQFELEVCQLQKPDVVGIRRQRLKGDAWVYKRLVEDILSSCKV

`COc1cc(-c2cncc(-c3ccc(N4CCN(C)CC4)cc3)c2C)cc(F)c1C(N)=O` [Compound 26a, 2-Fluoro-6-methoxy-4-(4-methyl-5-(4-(4-methylpiperazin-1-yl)phenyl)pyridin-3-yl)benzamide]: the remaining activity at 1 µM on PKCa stood at 89.8%; at DYRK1/DYRK1A, 43.3%; on CAMK1g, 102%; at PIM3, 100%. Further, the “% enzyme activity” value on TRKB is given as 99.94%; at ROS/ROS1, 86.47%; at TNK1, 99.53%; on MASTL it was 98.59%; at PKD2/PRKD2, 95.72%; at MELK it was 98.82%. Also, the Papp_AB in the data set with Caco-2 cells is listed as 5.5 10^-6 cm/s. Further, the Papp_BA with Caco-2 cells is on record as 16.2 10^-6 cm/s.
Consider `COc1cc(-c2cncc(-c3ccc(N4C[C@@H](C)N(C)[C@@H](C)C4)cc3)c2C)cc(F)c1C(N)=O` [Compound 26c, 2-Fluoro-6-methoxy-4-(4-methyl-5-(4-((3R,5S)-3,4,5-trimethylpiperazin-1-yl)phenyl)pyridin-3-yl)benzamide], for which the remaining activity at 1 µM worked out at 90.3% at PKCa, 62.4% at DYRK1/DYRK1A, 108% on CAMK1g and 107% on PIM3. Moreover, the “% enzyme activity” value is on record as 98.44% on TRKB; 95.54% on ROS/ROS1; 98.22% at TNK1; 100.30% at MASTL; 98.89% at PKD2/PRKD2; 99.30% at MELK. The Papp_AB in the data set on Caco-2 cells was 4.3 10^-6 cm/s. Also, the Papp_BA in the data set with Caco-2 cells is listed as 14.5 10^-6 cm/s.
